Test results as given in patent publication US20260217668A1, “CRYSTALLINE FORMS OF A LPA1 ANTAGONIST” (Bristol-Myers Squibb Company, priority 2022, published 2026).

Test: Moisture sorption isotherms
Type: physicochemical
Details: moisture sorption at 25° C., 4 to 95% RH (FIG. 4)
Method: Moisture sorption isotherms were collected in a TA Instrument VTI-SA+ Vapor Sorption Analyzer using approximately 270 mg of sample in a 250 μL ceramic pan. The sample was dried at 30° C. until the loss rate of 0.005 wt %/min was obtained for 10 minutes. The sample was tested at 25° C. and 4, 5, 15, 25, 35, 45, 50, 65, 75, 85, and 95% RH. Equilibration at each RH was reached when the rate of 0.01 wt %/min for 35 minutes was achieved or a maximum of 600 minutes.

hygroscopicity: non-hygroscopicity
SMILES: CCCN(C)C(=O)OCc1c(-c2ccc(O[C@H]3CCC[C@H](C(=O)O)C3)c(C)n2)nnn1C [Form A]
